Assay results: the OPERA property sets (Mansouri et al. 2018)

Conditions: for log10 BCF / log10 biotransformation half-life (days): fish

| Structure (SMILES) | melting point | boiling point | further results |
| --- | --- | --- | --- |
| O=[N+]([O-])c1ccc(O)cc1C(F)(F)F | 76 °C |  | log10 Koc (L/kg): 2.11 |
| CC(C)=CCC/C(C)=C/C=C/C(C)=C/C=C/C(C)=C/C=C/C=C(C)/C=C/C=C(C)/C=C/C1=C(C)CCCC1(C)C | 178 °C |  |  |
| COc1cc(OC)nc(Sc2cccc(Cl)c2C(=O)[O][Na])n1 |  |  | log10 Koc (L/kg): 1.15 |
| CCCNC(=O)OCC |  | 192 °C |  |
| CN(C)C(=S)Cl | 42.5 °C |  |  |
| FC(F)(Br)C(F)(F)C(F)(F)C(F)(F)C(F)(F)C(F)(F)Br |  | 142 °C |  |
| c1ccc(-c2noc(-c3ccccc3)n2)cc1 | 109 °C | 290 °C |  |
| Nc1ccccc1-c1ccccc1 | 51 °C | 299 °C | ready biodegradability: not readily biodegradable; log10 BCF: 1.41; log10 biotransformation half-life (days): -1.06 |
| CCCOC(=O)NCCCN(C)C |  |  | log10 Henry constant (atm·m³/mol): -8.83; log10 Koc (L/kg): 2.49; log10 vapour pressure (mmHg): -1.26 |
| CCCCCCC(=O)OC(=O)CCCCCC | -12.4 °C | 270 °C |  |
| Brc1cccc(-c2ccccc2)c1 |  | 300 °C |  |
| CCCCCC(=O)Nc1ccccc1 | 95 °C |  |  |
| CC1CC(CC2CCC(N)C(C)C2)CCC1N (configuration not stated) |  |  | ready biodegradability: not readily biodegradable |
| CC(=O)c1ccc(C(C)C)cc1 |  | 254 °C |  |
| CC[C@@H]1C(=O)OC[C@@H]1Cc1cncn1C.Cl | 204 °C |  |  |
| CC(=O)Nc1ccc([N+](=O)[O-])cc1 | 216 °C |  |  |
| CC1=C(/C=C/C(C)=C/C=C/C(C)=C/C=O)C(C)(C)CCC1 | 63 °C |  |  |
| OCCSCCCCCCCCCCSCCO | 69.5 °C |  |  |
| CC1CCCC1(C)C (configuration not stated) | -21.6 °C | 114 °C |  |
| ClC(Cl)C(Cl)(Cl)Cl | -29 °C | 160 °C | log10 vapour pressure (mmHg): 0.544 |
| CC(C)CCC[C@@H](C)[C@H]1CC[C@H]2[C@@H]3CCC4=C[C@@H](O)CC[C@]4(C)[C@H]3CC[C@]12C | 132 °C |  |  |
| C=C(C)C(=O)CC | -69.5 °C | 118 °C |  |
| CBr | -93.7 °C | 3.5 °C | log10 Henry constant (atm·m³/mol): -2.13; log10 Koc (L/kg): 1.34; log10 vapour pressure (mmHg): 3.21; ready biodegradability: not readily biodegradable |
| CC1(CCl)CO1 (configuration not stated) |  | 122 °C | ready biodegradability: not readily biodegradable |

| Structure (SMILES) | melting point | boiling point | further results |
| --- | --- | --- | --- |
| c1ccc(-c2nc3ccccc3o2)cc1 | 103 °C |  |  |
| NC(=O)C(=O)O |  |  | log10 vapour pressure (mmHg): -6.33 |
| Fc1c(F)c(F)c(C(F)(F)F)c(F)c1F | -65.6 °C | 104 °C | log10 vapour pressure (mmHg): 1.46 |
| COc1cc2c(cc1OC)C1CC(=O)C(CC(C)C)CN1CC2 (configuration not stated) | 128 °C |  |  |
| Cc1cc(C(C)(C)C)cc(C)c1CC1=NCCN1 | 132 °C |  |  |
| CCCCCCN(CCCCCC)C(=O)COC(=O)c1ccccc1 | 162 °C |  |  |
| CCSCC[C@H](N)C(=O)O | 195 °C |  |  |
| CCCOCCO |  | 150 °C | log10 vapour pressure (mmHg): 0.494 |
| NS(=O)(=O)c1ccc(S(=O)(=O)CCCO)c(F)c1 | 130 °C |  |  |
| CCCC=CC(=O)OCC |  | 174 °C |  |
| FC(Cl)C(F)(F)Br (configuration not stated) |  | 52.5 °C |  |
| COc1cc2c(c(O)c1OC)C(C)N(C)CC2 (configuration not stated) | 112 °C |  |  |
| CCC(C)(C)CCC(C)C |  | 153 °C |  |
| c1ccc(C2=NCCN2)cc1 | 96.5 °C |  |  |
| O=C(Nc1ccc(Cl)c(Cl)c1)Nc1cc(Cl)ccc1Oc1ccc(Cl)cc1S(=O)(=O)O |  |  | ready biodegradability: not readily biodegradable; log10 BCF: 1.87 |
| CC(C)(CO)CO | 130 °C | 208 °C | ready biodegradability: not readily biodegradable; log10 BCF: 0.67 |
| CCCCCCC=O | -43.3 °C | 153 °C | log10 Henry constant (atm·m³/mol): -3.57; log10 vapour pressure (mmHg): 0.546 |
| Cc1ccc(CC=O)cc1 | 40 °C | 222 °C |  |
| OC(c1ccccc1)c1ccc(Cl)cc1 (configuration not stated) | 60.8 °C |  | log10 BCF: 1.79; log10 biotransformation half-life (days): -0.89 |
| O=[N+]([O-])c1cc(Cl)cc(Cl)c1 | 65.4 °C |  | log10 BCF: 2.23; log10 biotransformation half-life (days): 0.57 |
| Cc1cc(C(C)(C)C)c(O)c(C(C)(C)C)c1 | 71 °C | 265 °C | log10 vapour pressure (mmHg): -2.29; ready biodegradability: readily biodegradable; log10 BCF: 3.03; log10 biotransformation half-life (days): 0.32 |
| CC(=O)Oc1ccccc1C(=O)Oc1ccccc1 | 96 °C |  |  |
| CCCCN(CCCC)SN(C)C(=O)Oc1cccc2c1OC(C)(C)C2 |  |  | log10 vapour pressure (mmHg): -6.51 |
| CNC(C)C |  | 50.4 °C |  |
